Reference: PubChem BioAssay AID1845211 (Molecular Pharmacology Branch, DTP, NCI, 2023)

Tested on: NCI-H322M multicellular tumor spheroids, viability (% test/control)
Experiment: Anticancer human tumor NCI-H322M cell line growth inhibition;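 for viability, T/C: spheroids exposed to compound for seven days before readout; 100% = DMSO vehicle control wells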
Details: for IC50: curve of first compound; for viability, T/C: stronger effect = lower value
How it was run: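 Complex spheroids of malignant cells with endothelial cells and mesenchymal stem cells; agents alone or combined, from near clinical Cmax (or 10 microM if unknown) down in half-log steps, 0.25% DMSO final.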

[1] = second compound 1 µM, first compound 0.0316 µM
[2] = second compound 1 µM, first compound 0.1 µM
[3] = second compound 1 µM, first compound 0.316 µM
[4] = second compound 1 µM, first compound 1 µM
[5] = second compound 1 µM, first compound 3.16 µM
[6] = second compound 1 µM, first compound 10 µM
[7] = second compound 3.16 µM, first compound 0.0316 µM
[8] = second compound 3.16 µM, first compound 0.1 µM
[9] = second compound 3.16 µM, first compound 0.316 µM
[10] = second compound 3.16 µM, first compound 1 µM
[11] = second compound 3.16 µM, first compound 3.16 µM
[12] = second compound 3.16 µM, first compound 10 µM
[13] = second compound 10 µM, first compound 0.0316 µM
[14] = second compound 10 µM, first compound 0.1 µM
[15] = second compound 10 µM, first compound 0.316 µM
[16] = second compound 10 µM, first compound 1 µM
[17] = second compound 10 µM, first compound 3.16 µM
[18] = second compound 10 µM, first compound 10 µM
[19] = second compound 31.6 µM, first compound 0.0316 µM
[20] = second compound 31.6 µM, first compound 0.1 µM
[21] = second compound 31.6 µM, first compound 0.316 µM
[22] = second compound 31.6 µM, first compound 1 µM
[23] = second compound 31.6 µM, first compound 3.16 µM
[24] = second compound 31.6 µM, first compound 10 µM
[25] = second compound 100 µM, first compound 0.0316 µM
[26] = second compound 100 µM, first compound 0.1 µM
[27] = second compound 100 µM, first compound 0.316 µM
[28] = second compound 100 µM, first compound 1 µM
[29] = second compound 100 µM, first compound 3.16 µM
[30] = second compound 100 µM, first compound 10 µM

COc1cc(C)[nH]c(=O)c1CN1CCc2c(Cl)cc(C(OC)C3COC3)c(Cl)c2C1=O (stereo not given) + Cn1nnc2c(C(N)=O)ncn2c1=O
IC50 (second compound 1 µM): > 10 µM
IC50 (second compound 3.16 µM): > 10 µM
IC50 (second compound 10 µM): > 10 µM
IC50 (second compound 31.6 µM): > 10 µM
IC50 (second compound 100 µM): > 10 µM
viability, T/C [1]: 90.6%
viability, T/C [2]: 93.2%
viability, T/C [3]: 97.7%
viability, T/C [4]: 106%
viability, T/C [5]: 88.1%
viability, T/C [6]: 93.3%
viability, T/C [7]: 97.5%
viability, T/C [8]: 85.8%
viability, T/C [9]: 97.4%
viability, T/C [10]: 99.5%
viability, T/C [11]: 95.4%
viability, T/C [12]: 100%
viability, T/C [13]: 100%
viability, T/C [14]: 108%
viability, T/C [15]: 97.2%
viability, T/C [16]: 92.3%
viability, T/C [17]: 90.2%
viability, T/C [18]: 91.6%
viability, T/C [19]: 91%
viability, T/C [20]: 113%
viability, T/C [21]: 102%
viability, T/C [22]: 92.3%
viability, T/C [23]: 94.1%
viability, T/C [24]: 96.5%
viability, T/C [25]: 109%
viability, T/C [26]: 106%
viability, T/C [27]: 114%
viability, T/C [28]: 89.7%
viability, T/C [29]: 95%
viability, T/C [30]: 101%

Cc1cc(C)c(CNC(=O)c2cc(-c3ccc(CN4CCOCC4)cc3)cc3c2cnn3C2CCCC2)c(=O)[nH]1 + Cn1nnc2c(C(N)=O)ncn2c1=O
IC50 (second compound 1 µM): > 10 µM
IC50 (second compound 3.16 µM): > 10 µM
IC50 (second compound 10 µM): > 10 µM
IC50 (second compound 31.6 µM): > 10 µM
IC50 (second compound 100 µM): > 10 µM
viability, T/C [1]: 99.7%
viability, T/C [2]: 101%
viability, T/C [3]: 98.5%
viability, T/C [4]: 94.3%
viability, T/C [5]: 133%
viability, T/C [6]: 95.5%
viability, T/C [7]: 78%
viability, T/C [8]: 102%
viability, T/C [9]: 103%
viability, T/C [10]: 81.3%
viability, T/C [11]: 107%
viability, T/C [12]: 118%
viability, T/C [13]: 92.2%
viability, T/C [14]: 94.3%
viability, T/C [15]: 105%
viability, T/C [16]: 106%
viability, T/C [17]: 101%
viability, T/C [18]: 119%
viability, T/C [19]: 101%
viability, T/C [20]: 95%
viability, T/C [21]: 103%
viability, T/C [22]: 104%
viability, T/C [23]: 104%
viability, T/C [24]: 122%
viability, T/C [25]: 105%
viability, T/C [26]: 100%
viability, T/C [27]: 113%
viability, T/C [28]: 96.8%
viability, T/C [29]: 105%
viability, T/C [30]: 123%

Cc1sc2c(c1C)C(c1ccc(Cl)cc1)=NC(CC(=O)Nc1ccc(O)cc1)c1nnc(C)n1-2 (stereo not given) + Cn1nnc2c(C(N)=O)ncn2c1=O
IC50 (second compound 1 µM): > 3 µM
IC50 (second compound 3.16 µM): > 3 µM
IC50 (second compound 10 µM): > 3 µM
IC50 (second compound 31.6 µM): > 3 µM
IC50 (second compound 100 µM): > 3 µM
viability, T/C (second compound 1 µM, first compound 0.00949 µM): 109%
viability, T/C (second compound 1 µM, first compound 0.03 µM): 105%
viability, T/C (second compound 1 µM, first compound 0.0949 µM): 134%
viability, T/C (second compound 1 µM, first compound 0.3 µM): 114%
viability, T/C (second compound 1 µM, first compound 0.949 µM): 81.2%
viability, T/C (second compound 1 µM, first compound 3 µM): 80.3%
viability, T/C (second compound 3.16 µM, first compound 0.00949 µM): 104%
viability, T/C (second compound 3.16 µM, first compound 0.03 µM): 113%
viability, T/C (second compound 3.16 µM, first compound 0.0949 µM): 120%
viability, T/C (second compound 3.16 µM, first compound 0.3 µM): 103%
viability, T/C (second compound 3.16 µM, first compound 0.949 µM): 87.6%
viability, T/C (second compound 3.16 µM, first compound 3 µM): 73.5%
viability, T/C (second compound 10 µM, first compound 0.00949 µM): 107%
viability, T/C (second compound 10 µM, first compound 0.03 µM): 124%
viability, T/C (second compound 10 µM, first compound 0.0949 µM): 129%
viability, T/C (second compound 10 µM, first compound 0.3 µM): 113%
viability, T/C (second compound 10 µM, first compound 0.949 µM): 90.2%
viability, T/C (second compound 10 µM, first compound 3 µM): 74.5%
viability, T/C (second compound 31.6 µM, first compound 0.00949 µM): 111%
viability, T/C (second compound 31.6 µM, first compound 0.03 µM): 130%
viability, T/C (second compound 31.6 µM, first compound 0.0949 µM): 120%
viability, T/C (second compound 31.6 µM, first compound 0.3 µM): 115%
viability, T/C (second compound 31.6 µM, first compound 0.949 µM): 91.2%
viability, T/C (second compound 31.6 µM, first compound 3 µM): 71.9%
viability, T/C (second compound 100 µM, first compound 0.00949 µM): 116%
viability, T/C (second compound 100 µM, first compound 0.03 µM): 124%
viability, T/C (second compound 100 µM, first compound 0.0949 µM): 116%
viability, T/C (second compound 100 µM, first compound 0.3 µM): 111%
viability, T/C (second compound 100 µM, first compound 0.949 µM): 92.7%
viability, T/C (second compound 100 µM, first compound 3 µM): 82%

[2H]c1nc(C)nc([2H])c1-c1cc(NC[C@@H](C)c2cccc3c(C(=O)NC)ccnc23)ncn1 + Cn1nnc2c(C(N)=O)ncn2c1=O
IC50 (second compound 1 µM): > 10 µM
IC50 (second compound 3.16 µM): > 10 µM
IC50 (second compound 10 µM): > 10 µM
IC50 (second compound 31.6 µM): > 10 µM
IC50 (second compound 100 µM): > 10 µM
viability, T/C [1]: 103%
viability, T/C [2]: 101%
viability, T/C [3]: 93%
viability, T/C [4]: 116%
viability, T/C [5]: 88.2%
viability, T/C [6]: 84.4%
viability, T/C [7]: 105%
viability, T/C [8]: 92.1%
viability, T/C [9]: 94%
viability, T/C [10]: 97.5%
viability, T/C [11]: 100%
viability, T/C [12]: 99.3%
viability, T/C [13]: 85.5%
viability, T/C [14]: 80.7%
viability, T/C [15]: 77.9%
viability, T/C [16]: 99.2%
viability, T/C [17]: 107%
viability, T/C [18]: 116%
viability, T/C [19]: 81.8%
viability, T/C [20]: 89.3%
viability, T/C [21]: 89.9%
viability, T/C [22]: 91.9%
viability, T/C [23]: 102%
viability, T/C [24]: 99.5%
viability, T/C [25]: 96.8%
viability, T/C [26]: 88.9%
viability, T/C [27]: 100%
viability, T/C [28]: 92.5%
viability, T/C [29]: 91.8%
viability, T/C [30]: 95.3%
